Measurements as given in patent US20070197657A1, “Method for treating non-inflammatory musculoskeletal pain” (SRZ Properties, Inc., priority 2005, published 2007).
Entries after “also recorded” stand apart in the source; their conditions may differ.

Experiments:
[1] = system: monosodium iodoacetate-induced mechanical hyperalgesia; test: monosodium iodoacetate-induced mechanical hyperalgesia (Randall-Selitto paw pressure); type: in vivo, rat; conditions: for mechanical hyperalgesia (paw pressure withdrawal threshold) compared to iodoacetate/vehicle treated animals: day 3; for mechanical hyperalgesia (paw pressure withdrawal threshold): day 7
[2] = system: monosodium iodoacetate-induced tactile allodynia; test: monosodium iodoacetate-induced tactile allodynia (von Frey filaments); type: in vivo, rat
[3] = system: formalin-induced flinching and licking of the affected paw; test: rat formalin paw test (late phase); type: in vivo
Procedure: Rats were given an intraplantar injection of 5% formalin (50 μl) into the posterior left paw. This treatment induces a recognizable flinching and licking response of the affected paw in control animals. The number of flinches was counted for 15 minutes, beginning 20 minutes after injection of formalin. The time spent licking the affected paw was also recorded.
Male Rj: Wistar (Han) rats, 10 per group, weighing 100-130 g at the beginning of the experiments were studied per group. The test was performed blind.
Lacosamide (20 mg/kg), gabapentin (50 and 100 mg/kg), combinations of lacosamide (20 mg/kg) with gabapentin (50 and 100 mg/kg), and vehicle were administered i.p. 10 minutes before injection of formalin.
Lacosamide (10 and 20 mg/kg), morphine (2 and 4 mg/kg), combinations of lacosamide (10 and 20 mg/kg) with morphine (2 and 4 mg/kg), and vehicle were administered i.p. 10 minutes before injection of formalin.
Lacosamide (10 mg/kg), duloxetine (8 mg/kg), a combination of lacosamide (10 mg/kg) with duloxetine (8 mg/kg), and vehicle were administered i.p. 10 minutes before injection of formalin.
Lacosamide (10 and 20 mg/kg), memantine (4 and 8 mg/kg), combinations of lacosamide (10 and 20 mg/kg) with memantine (4 and 8 mg/kg), and vehicle were administered i.p. 10 minutes before injection of formalin.
Lacosamide (10 and 20 mg/kg), naproxen (8 and 16 mg/kg), combinations of lacosamide (10 and 20 mg/kg) with […] (8 and 16 mg/kg), and vehicle were administered i.p. 10 minutes before injection of formalin. Morphine (8 mg/kg) was included as a comparative treatment.

[4] = system: muscle pressure hyperalgesia induced by TNF; test: TNF-induced muscle pressure hyperalgesia (Randall-Selitto, gastrocnemius muscle); type: in vivo, rat; conditions: for reversal of muscular mechanical hyperalgesia (withdrawal threshold to muscle pressure): TNF 1 μg i.m. gastrocnemius; for full reversal of the muscle hyperalgesia: doses tested (pregabalin 30, 100 mg/kg; gabapentin 100 mg/kg i.p.)
Description: (§1) The model used in this example is applicable to musculoskeletal pain which occurs in fibromyalgia, myofascial pain syndrome or back pain. For comparative purposes, the non-opioid analgesic dipyrone (metamizol) and the anticonvulsants pregabalin and gabapentin were included in the study.
(§2) Adult male Sprague Dawley rats with a body weight of 250 g to 300 g were used (supplier: Charles River, Sulzfeld, Germany). Animals were group-housed (3 animals per cage) and maintained in a room with controlled temperature (21-22° C.) and a reversed light-dark cycle (12 h/12 h) with food and water available ad libitum. All experiments were approved by the Bavarian State animal experimentation committee and carried out in accordance with its regulations.
(§3) Recombinant rat tumor necrosis factor alpha (herein referred to as TNF) was obtained from R&D Systems, Minneapolis, Minn., U.S.A. TNF was diluted in 0.9% NaCl and used in a concentration of 1 μg in 50 μl. Injections were performed in short halothane narcosis with a 30 g needle bilaterally into the gastrocnemius or into the biceps brachii muscle. All rats were used to the behavioral tests before injections and baseline values were recorded over three test days.
Mechanical withdrawal thresholds to muscle pressure were measured with an analgesimeter (Ugo Basile, Comerio, Italy). The rat was allowed to crawl into a sock which helps the rat to relax. The hind limbs were positioned such that an increasing pressure could be applied onto the gastrocnemius muscle (maximum 250 g). The pressure needed to elicit withdrawal was recorded. Means of 3 trials for each hind limb were calculated (interstimulus interval of >30 sec). Only animals with a significant TNF effect were included for further analysis.
Rats were injected with TNF into the gastrocnemius muscle at 2 pm. Eighteen hours later, rats were tested for pressure hyperalgesia pre- and post-administration of the test drug. Rats were tested for pressure hyperalgesia 30 to 60 minutes after drug administration.
(§4) The rats, initially 10 per group, were treated with either 3, 10 or 30 mg/kg lacosamide, 2 mg/kg metamizol, 30 or 100 mg/kg pregabalin, 100 mg/kg gabapentin, or the NaCl vehicle, i.p. (intraperitoneally). Volume of i.p. injections was 0.5 ml. A pilot study was performed to confirm that i.m. (intramuscular) injection of 1 μg TNF into the gastrocnemius muscle was sufficient to induce pressure hyperalgesia.
(§5) Data are shown in graphs displaying means and standard errors of the means (SEM). Pre- and post-treatment data were compared using ANOVA (analysis of variance) and a Tukey post hoc test. Means of treatment groups were compared using a one-way ANOVA and Dunnett's post hoc test. Maximal possible effects (MPE) were calculated for all types of treatment.

[5] = system: TNF-induced reduction of grip strength; test: biceps muscle grip strength after TNF-induced muscle pain; type: in vivo, rat; conditions: for reversal of TNF-induced reduction of grip strength: TNF 1 μg i.m. biceps brachii
Description: as §1, §2, §3
Grip strength of the forelimbs was tested with a digital grip force meter (DFIS series, Chatillon, Greensboro, N.C., U.S.A.). The rat was positioned to grab the grid with the forelimbs and was gently pulled so that the grip strength could be recorded. Means of three trials were calculated. The effect of the TNF treatment was calculated for each animal separately and only animals with a significant TNF effect were included for further analysis.
Rats were injected with TNF into the biceps brachii muscle at 8 am. Six hours later, grip strength of the forelimbs was tested with a digital grip force meter. Test drug was administered, and grip strength was again tested after 30 to 60 minutes.
as §4, §5

[6] = Example 5, duloxetine 8 mg/kg i.p.
[7] = Example 3, gabapentin 50 mg/kg i.p.
[8] = Example 3, gabapentin 100 mg/kg i.p.
[9] = 3 mg/kg (lacosamide p.o., morphine s.c.)
[10] = Example 4, morphine 2 mg/kg i.p.
[11] = Example 4, morphine 4 mg/kg i.p.
[12] = Example 7, morphine 8 mg/kg i.p.

`O=C(O)Cc1ccccc1Nc1c(Cl)cccc1Cl` [Diclofenac, diclofenac] was tested, and the “mechanical hyperalgesia (paw pressure withdrawal threshold) compared to iodoacetate/vehicle treated animals” value ([1]; 30 mg/kg s.c.) was “increase in paw pressure withdrawal threshold”, the “mechanical hyperalgesia (paw pressure withdrawal threshold)” value ([1]; 30 mg/kg (lacosamide p.o., diclofenac s.c.)) was “reduced mechanical hyperalgesia” and the “tactile allodynia of iodoacetate-treated rats” value (from here on “tactile allodynia”) ([2]; day 3, 30 mg/kg (lacosamide p.o., diclofenac s.c.)) was “no effect”. The “tactile allodynia” value ([2]; day 7, 30 mg/kg (lacosamide p.o., diclofenac s.c.)) was “no effect” and the “tactile allodynia” value ([2]; day 14, 30 mg/kg (lacosamide p.o., diclofenac s.c.)) was “no effect”.
With `CNCC[C@H](Oc1cccc2ccccc12)c1cccs1` [Duloxetine, duloxetine, reference compound] the “Licking time % change (a): compared with vehicle control” value (shortened to “Licking time % change”) [3, 6] was −26%, the “Licking time (seconds) mean ± SEM” value [3, 6] was 195.5 ± 45.0 s and the “No. of flinches % change (a): compared with vehicle control” value (“No. of flinches % change” for short) [3, 6] was −1%. For the same molecule, the “No. of flinches mean ± SEM” value [3, 6] was 149.6 ± 27.3 and the “effects on number of flinches and time spent licking” value [3, 6] was “no clear effects”.
With `NCC1(CC(=O)O)CCCCC1` [Gabapentin, gabapentin, reference compound] the “MPE (maximal possible effect) on muscle pressure hyperalgesia, versus vehicle” value ([4]; 100 mg/kg i.p.) was “significantly different from vehicle”, the “reversal of muscular mechanical hyperalgesia (withdrawal threshold to muscle pressure)” value ([4]; 100 mg/kg i.p.) was “significant reversal” and the “full reversal of the muscle hyperalgesia” value [4] was “Neither pregabalin nor gabapentin led to a full reversal”. The “Licking time % change” value [3, 7] was −28%, the “Licking time (seconds) mean ± SEM” value [3, 7] was 161.0 ± 27.3 s and the “No. of flinches % change” value [3, 7] was −24%. For the same molecule, the “No. of flinches mean ± SEM” value [3, 7] was 97.4 ± 23.8, the “decrease in the number of flinches as compared with vehicle controls” value [3, 7] was 24% and the “decrease in the time spent licking as compared with vehicle controls” value [3, 7] was 28%. For the same molecule, the “Licking time % change” value [3, 8] was −60%, the “Licking time (seconds) mean ± SEM” value [3, 8] was 90.0 ± 22.5 s and the “No. of flinches % change” value [3, 8] was −31%. The “No. of flinches mean ± SEM” value [3, 8] was 88.1 ± 19.4, the “decrease in the number of flinches as compared with vehicle controls” value [3, 8] was 31% and the “decrease in the time spent licking as compared with vehicle controls” value [3, 8] was 60%. The “MPE (maximal possible effect) on biceps muscle grip strength, versus vehicle” value ([5]; 100 mg/kg i.p.) was “significantly different from vehicle” and the “reversal of TNF-induced reduction of grip strength” value ([5]; 100 mg/kg i.p., 100 mg/kg) was “significant reversal; also recorded: improved grip strength”.
For `CC12CC3CC(C)(C1)CC(N)(C3)C2` [Memantine, memantine, reference compound], the “effect on the number of flinches as compared with vehicle controls” value ([3]; Example 6, memantine 4 and 8 mg/kg i.p.) was “did not clearly affect”.
`CN1CC[C@]23c4c5ccc(O)c4O[C@H]2[C@@H](O)C=C[C@H]3[C@H]1C5` [Morphine, morphine, reference compound] was tested, and the “mechanical hyperalgesia (paw pressure withdrawal threshold) compared to iodoacetate/vehicle treated animals” value [1, 9] was “increase in paw pressure withdrawal threshold”, the “mechanical hyperalgesia (paw pressure withdrawal threshold)” value [1, 9] was “reduced mechanical hyperalgesia” and the “tactile allodynia” value ([2]; day 3, 3 mg/kg s.c.) was “improved”. The “tactile allodynia” value ([2]; day 7, 3 mg/kg s.c.) was “improved”, the “tactile allodynia” value ([2]; day 14, 3 mg/kg s.c.) was “not on day 14” and the “Licking time % change” value [3, 10] was −1%. For the same molecule, the “Licking time (seconds) mean ± SEM” value [3, 10] was 289.3 ± 30.7 s, the “No. of flinches % change” value [3, 10] was −7% and the “No. of flinches mean ± SEM” value [3, 10] was 139.5 ± 25.3. The “Licking time % change” value [3, 11] was −20%, the “Licking time (seconds) mean ± SEM” value [3, 11] was 234.9 ± 37.3 s and the “No. of flinches % change” value [3, 11] was −37%. The “No. of flinches mean ± SEM” value [3, 11] was 94.3 ± 21.1, the “effects on the number of flinches and the time spent licking as compared with vehicle controls” value ([3]; Example 4, morphine 2 and 4 mg/kg i.p.) was “did not reach statistical significance” and the “Licking time % change” value [3, 12] was −100%. For the same molecule, the “Licking time (seconds) mean ± SEM” value [3, 12] was 0.0 ± 0.0 s, the “No. of flinches % change” value [3, 12] was −100% and the “No. of flinches mean ± SEM” value [3, 12] was 0.2 ± 0.1. The “effect on flinching and the time spent licking as compared with vehicle controls” value [3, 12] was “eliminated”.
`COc1ccc2cc([C@H](C)C(=O)O)ccc2c1` [Naproxen, naproxen, reference compound] was tested, and the “effect on the number of flinches or the time spent licking as compared with vehicle controls” value ([3]; Example 7, naproxen 8 and 16 mg/kg i.p.) was “did not clearly affect”.
In the case of `Cc1c(N(C)CS(=O)(=O)O)c(=O)n(-c2ccccc2)n1C` [metamizol], the “MPE (maximal possible effect) on muscle pressure hyperalgesia, versus vehicle” value ([4]; 2 mg/kg i.p.) is reported as “significantly different from vehicle”, the “reversal of muscular mechanical hyperalgesia (withdrawal threshold to muscle pressure)” value ([4]; 2 mg/kg i.p.) is reported as “complete reversal” and the “MPE (maximal possible effect) on biceps muscle grip strength, versus vehicle” value ([5]; 2 mg/kg i.p.) is reported as “significantly different from vehicle”. For the same molecule, the “reversal of TNF-induced reduction of grip strength” value ([5]; 2 mg/kg i.p.) was “significant reversal”.
With `CC(C)C[C@H](CN)CC(=O)O` [pregabalin] the “MPE (maximal possible effect) on muscle pressure hyperalgesia, versus vehicle” value ([4]; 30 mg/kg i.p.) was “significantly different from vehicle”, the “MPE (maximal possible effect) on muscle pressure hyperalgesia, versus vehicle” value ([4]; 100 mg/kg i.p.) was “significantly different from vehicle” and the “reversal of muscular mechanical hyperalgesia (withdrawal threshold to muscle pressure)” value ([4]; 30 mg/kg i.p.) was “significant reversal”. The “reversal of muscular mechanical hyperalgesia (withdrawal threshold to muscle pressure)” value ([4]; 100 mg/kg i.p.) was “significant reversal”, the “full reversal of the muscle hyperalgesia” value [4] was “Neither pregabalin nor gabapentin led to a full reversal” and the “MPE (maximal possible effect) on biceps muscle grip strength, versus vehicle” value ([5]; 100 mg/kg i.p.) was “significantly different from vehicle”. The “reversal of TNF-induced reduction of grip strength” value ([5]; 100 mg/kg i.p., 100 mg/kg) was “significant reversal; also recorded: improved grip strength”.
